Test results taken from ChEMBL document CHEMBL1201862, “PubChem BioAssay data set” (2004).
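Exposure lasted 48 hours, with cells grown in 96-well plates and compounds tested at five concentrations. At the GI50, growth is halved.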 Active and inactive are the calls of the source. Rule as the data show it: active = GI50 up to about 1.1 µM and inactive = higher.

Assays:
Assay in all cases: inhibition of tumour cell growth, NCI panel, 48 h
A549 = system: A549
RXF 393 = system: RXF 393
EKVX = system: EKVX
OVCAR-4 = system: OVCAR-4
NCI-H23 = system: NCI-H23
M14 = system: M14
SNB-19 = system: SNB-19
NCI-H460 = system: NCI-H460
CAKI-1 = system: CAKI-1
HT-29 = system: HT-29
NCI-H522 = system: NCI-H522
SF-295 = system: SF-295
HCC 2998 = system: HCC 2998
UACC-257 = system: UACC-257
HCT-15 = system: HCT-15
SF-539 = system: SF-539
OVCAR-3 = system: OVCAR-3
HCT-116 = system: HCT-116
A498 = system: A498

| SMILES | GI50 (A549) | GI50 (RXF 393) | GI50 (EKVX) | GI50 (OVCAR-4) | GI50 (NCI-H23) | GI50 (M14) | GI50 (SNB-19) | GI50 (NCI-H460) | GI50 (CAKI-1) | GI50 (HT-29) | GI50 (NCI-H522) | GI50 (SF-295) | GI50 (HCC 2998) | GI50 (UACC-257) | GI50 (HCT-15) [µM] | GI50 (SF-539) | GI50 (OVCAR-3) | GI50 (HCT-116) | GI50 (A498) |
| --- | --- | --- | --- | --- | --- | --- | --- | --- | --- | --- | --- | --- | --- | --- | --- | --- | --- | --- | --- |
| [O-][S+]1c2ccccc2NC(c2ccc3ccccc3c2)CC1c1ccccc1 (configuration not stated) | 30.1 µM (inactive) | 14.8 µM (inactive) | 26.6 µM (inactive) | 23.9 µM (inactive) | 16.7 µM (inactive) | 40.5 µM (inactive) | 30.6 µM (inactive) | 19.5 µM (inactive) | 26.8 µM (inactive) | 22.3 µM (inactive) | 17.8 µM (inactive) | 19.1 µM (inactive) | 17.8 µM (inactive) | 32.4 µM (inactive) | 22.3 | 20 µM (inactive) | 15.6 µM (inactive) |  |  |
| CC(=O)Nc1ccc(/C=c2\sc3nnc(CCC(=O)Nc4ccccc4Cl)n3c2=O)cc1 | 30.4 µM (inactive) | 27.3 µM (inactive) | > 100 µM (inactive) | 20.6 µM (inactive) | 46.3 µM (inactive) | 16.7 µM (inactive) | 38.9 µM (inactive) | > 10 µM (inactive) | > 100 µM (inactive) | 54.2 µM (inactive) | 18.7 µM (inactive) | 18.1 µM (inactive) | > 10 µM (inactive) | > 10 µM (inactive) | 44.6 | 23.5 µM (inactive) | 21.6 µM (inactive) | 37.7 µM (inactive) |  |
| O=c1cc(-c2ccccc2)[nH]c2c(Cl)cccc12 | 7.98 µM (inactive) | 15.7 µM (inactive) | 49.5 µM (inactive) | 18.9 µM (inactive) | 63.2 µM (inactive) | 9.31 µM (inactive) | 20.5 µM (inactive) | 8.2 µM (inactive) |  | 20.8 µM (inactive) |  | 20.1 µM (inactive) | 14.8 µM (inactive) | 78.3 µM (inactive) | 5.09 | 15.3 µM (inactive) | 24.5 µM (inactive) | 7.24 µM (inactive) | 14.2 µM (inactive) |
| CC1CC2(S(=O)(=O)c3ccccc3)ON1CC2S(=O)(=O)c1ccccc1 (configuration not stated) | > 100 µM (inactive) | > 100 µM (inactive) | > 100 µM (inactive) | > 100 µM (inactive) | > 100 µM (inactive) | > 100 µM (inactive) | > 100 µM (inactive) | > 100 µM (inactive) | > 100 µM (inactive) | > 100 µM (inactive) | 70.8 µM (inactive) | > 100 µM (inactive) | > 100 µM (inactive) | > 100 µM (inactive) | > 100 | 42.3 µM (inactive) | > 100 µM (inactive) | > 100 µM (inactive) |  |
| Cc1cccc2c3ccc4c(c3n(C)c12)C(=O)C=CC4=O | > 100 µM (inactive) |  | > 100 µM (inactive) | > 100 µM (inactive) | 18.6 µM (inactive) | > 100 µM (inactive) | > 100 µM (inactive) |  | > 100 µM (inactive) | > 100 µM (inactive) | > 100 µM (inactive) | > 100 µM (inactive) | > 100 µM (inactive) | > 100 µM (inactive) |  | > 100 µM (inactive) | > 100 µM (inactive) | > 100 µM (inactive) |  |
| COc1ccc(/C(Cl)=C(/c2ccc(O)cc2)c2ccc(OCCN(C)C)cc2)cc1 | 13.8 µM (inactive) | 5.12 µM (inactive) | 16.6 µM (inactive) | 13.9 µM (inactive) | 15.6 µM (inactive) | 2.1 µM (inactive) | 14.1 µM (inactive) | 12.7 µM (inactive) | 14.3 µM (inactive) | 2.13 µM (inactive) | 12.1 µM (inactive) | 4.78 µM (inactive) | 16.7 µM (inactive) | 2.9 µM (inactive) | 11.3 | 11.5 µM (inactive) | 15.3 µM (inactive) |  |  |
| O=C1CC23CCCCCCCCCCC2(C1)CC(=O)C3 (configuration not stated) | 30 µM (inactive) | 25.4 µM (inactive) | 30.1 µM (inactive) |  | 32.1 µM (inactive) | 16.6 µM (inactive) | 22.9 µM (inactive) | 34.7 µM (inactive) |  | 18.1 µM (inactive) | 18.6 µM (inactive) | 35.3 µM (inactive) | 32.7 µM (inactive) | 34.8 µM (inactive) | 27.3 | 33.7 µM (inactive) | 17.7 µM (inactive) |  |  |
